Test results taken from patent US20200121652A1, “COMPOUNDS HAVING CASPASE INHIBITORY ACTIVITY, PHARMACEUTICAL AGENT CONTAINING SAID COMPOUNDS AND FOR TREATING OR PREVENTING CORNEAL ENDOTHELIAL SYMPTOMS, DISORDERS, OR DISEASES, AND APPLICATION OF SAID PHARMACEUTICAL AGENT” (The Doshisha, priority 2017, published 2020).

What was measured:
Format in all cases: cell-based
[1] = system: Fuchs' endothelial corneal dystrophy patient derived immortalized human corneal endothelial cells; experiment: Phase contrast microscope observation of cell damage after TGF-β2 stimulation (Examples 4-6); conditions: then TGF-β2 10 ng/ml 24 h; for disorder in corneal endothelial cells (phase contrast microscope): pretreated 24 h
Procedure: (§1) The medium was removed from the culture dish in which Fuchs' endothelial corneal dystrophy patient derived immortalized human corneal endothelial cells were being cultured, and the cells were supplemented with 1× PBS (−) that was preheated to 37° C., and were washed. This was repeated twice. The cells were supplemented with 1× PBS (−) again and incubated for 5 minutes at 37° C. (5% CO2). After removing the PBS (−), the cells were supplemented with 0.05% Trypsin-EDTA (nacalai tesque, 32778-34) and incubated for 5 minutes at 37° C. (5% CO2). The cells were then suspended in a medium, and collected by centrifugation at 1500 rpm for 3 minutes. DMEM (nacalai tesque, 08456-36) +10% FBS (Sigma, 13H467)+1% P/S (nacalai tesque, 26252-94) was used as the medium.
Fuchs' endothelial corneal dystrophy patient derived immortalized human corneal endothelial cells (lot: iFECD3-5) were seeded on a 12-well plate at a ratio of 5.0×10^4 cells per well, and cultured for 24 hours at 37° C. (5% CO2). DMEM+10% FBS+1% P/S was used as the medium.
(§2) After 24 hours, the medium was removed, fluticasone furoate (AXON MEDCHEM, 1172) was added so that the final concentration was each 0.0001, 0.0003, 0.001, 0.003, 0.01, 0.03, 0.1, 0.3, 1, and 3 μM, and the cells were cultured for 24 hours. DMEM+2% FBS+1% P/S was used as the medium.
After 24 hours, the medium was removed, fluticasone furoate was added together with 10 ng/ml Transforming Growth Factor-82 Human recombinant (WAKO, 200-19911) so that the final concentration was each 0.0001, 0.0003, 0.001, 0.003, 0.01, 0.03, 0.1, 0.3, 1, and 3 μM, and the cells were cultured for 24 hours. Medium: DMEM+2% FBS+1% P/S
After 24 hours, cell morphology and apoptosis were observed using a phase difference microscope.
In this example, TGF-β inhibiting activity of ZK216348 (AXON MEDCHEM, AXON2239), which is one of SEGRMs, was tested. The operation by a phase contrast microscope was carried out in the same manner as Example 4. 10 μM of ZK216348 was used as the final concentration.
After 24 hours, the medium was removed, ZK216348 was added together with 10 ng/ml Transforming Growth Factor-β2 Human recombinant (WAKO, 200-19911) so that the final concentration was […], and the cells were cultured for 24 hours. DMEM+2% FBS+1% P/S was used as the medium.

[2] = system: Fuchs' endothelial corneal dystrophy patient derived immortalized human corneal endothelial cells; experiment: Caspase-Glo 3/7 Assay after pretreatment and TGF-β2 stimulation (Examples 4-5); conditions: for activity of Caspase 3/7: TGF-β2 10 ng/ml 24 h; for ratio of (caspase 3/7 activity)/(cell viability): agent concentration 0.0001 to 3 μM (FIG. 12)
Procedure: as §1
Fuchs' endothelial corneal dystrophy patient derived immortalized human corneal endothelial cells (lot: iFECD3-5) were seeded on a 96-well plate at a ratio of 7×10^3 cells per well, and cultured at 37° C. (5% CO2) until reaching confluence. DMEM+10% FBS+1% P/S was used as the medium.
as §2
After 24 hours, the medium was removed, 10 ng/ml Transforming Growth Factor-82 Human recombinant (WAKO, 200-19911) and fluticasone furoate were added so that the final concentration was each 0.0001, 0.0003, 0.001, 0.003, 0.01, 0.03, 0.1, 0.3, 1, and 3 μM, and the cells were cultured for 24 hours. DMEM+2% FBS+1% P/S was used as the medium.
After observation, measurement of caspase 3/7 activity by Caspase-Glo 3/7 Assay was carried out with the following procedure.
The medium was discarded to achieve 50 μl per well. 50 μl/well of CaspaseGlo 3/7 Assay Reagent (mixture of Caspase-Glo 3/7 Assay Buffer and Caspase-Glo 3/7 Assay Substrate) (Promega, G8091) solution was added so as to achieve 1:1 with the medium. The operations hereafter were carried out while being shaded. A shaker was used to mix the content well for 2 minutes at about 120 r/min to then be left still for 40 minutes at room temperature. After being left still, 80 μl was transferred to Assay plate (Corning, 3912, Assay plate 96 well, white polystyrene) and […] was measured using GloMax-Multi Detection System (Promega, E7051). Furthermore, 10 μM Z-VD-FMK (WAKO, 262-02061), which is a caspase inhibitor, was used as the positive control.
In this example, TGF-β inhibiting activity of fluticasone propionate (AXON MEDCHEM, 1404), which is one of SEGRAs, was tested. The test was conducted by the same procedure as Example 4.

[3] = system: Fuchs' endothelial corneal dystrophy patient derived immortalized human corneal endothelial cells; experiment: Cell Titer-Glo Luminescent Cell Viability Assay (Examples 4-5); conditions: all concentrations of 0.0001, 0.0003, 0.001, 0.003, 0.01, 0.03, 0.1, 0.3, 1, and 3 μM
Procedure: as §1
Fuchs' endothelial corneal dystrophy patient derived immortalized human corneal endothelial cells (lot: iFECD3-5) were seeded on a 96-well plate at a ratio of 7×10^3 cells per well, and cultured at 37° C. (5% CO2) until reaching confluence. DMEM+10% FBS+1% P/S was used as the medium. […]
Cell viability was analyzed using Cell Titer-Glo Luminescent Cell Viability Assay by the following procedure.
The medium was discarded to achieve 50 μl per well. […] After being left still, 80 μl was transferred to Assay plate (Corning, 3912, Assay plate 96 well, white polystyrene) and […] was measured using GloMax-Multi Detection System (Promega, E7051). […]

SMILES | free cells and disorder in corneal endothelial cells (phase contrast microscope) ([1]; pretreated, final concentration 10 μM) | disorder in corneal endothelial cells (phase contrast microscope) ([1]; 0.0001 and 0.0003 μM) | disorder in corneal endothelial cells (phase contrast microscope) ([1]; 0.001, 0.003, 0.01, 0.03, 0.1, 0.3, 1, and 3 μM) | activity of Caspase 3/7 ([2]; 0.003, 0.01, 0.03, 0.1, 0.3, 1, and 3 μM) | activity of Caspase 3/7 ([2]; in the order of 0.0001, 0.0003, and 0.001 μM) | ratio of (caspase 3/7 activity)/(cell viability) [2] | cell viability [3] | disorder in corneal endothelial cells (phase contrast microscope) ([1]; 0.0001, 0.0003, 1, and 3 μM) | disorder in corneal endothelial cells (phase contrast microscope) ([1]; 0.001, 0.003, 0.01, 0.03, and 0.1 μM) | activity of Caspase 3/7 ([2]; 0.01, 0.03, 0.1, 0.3, and 1 μM) | activity of Caspase 3/7 ([2]; in the order of 0.0001, 0.0003, 0.001, and 0.003 μM)
Cc1noc(=O)c2ccc(NC(=O)C(O)(CC(C)(C)c3cccc4c3OCC4)C(F)(F)F)cc12 (single isomer, unassigned; (+)) [ZK216348, (+)-4-(2,3-dihydro-1-benzofuran-7-yl)-2-hydroxy-4-methyl-N-(4-methyl-1-oxo-2,3-benzoxazine-6-yl)-2-(trifluoromethyl)pentanamide] | free cells were decreased and a disorder in corneal endothelial cells was suppressed |  |  |  |  |  |  |  |  |  | 
C[C@@H]1C[C@H]2[C@@H]3C[C@H](F)C4=CC(=O)C=C[C@]4(C)[C@@]3(F)[C@@H](O)C[C@]2(C)[C@@]1(OC(=O)c1ccco1)C(=O)SCF [fluticasone furoate] |  | effect of suppressing a disorder in corneal endothelial cells was confirmed | effectively suppressed | almost the same as those in the Control group | decreased | below 0.8 | no significant difference from the Control group |  |  |  | 
CCC(=O)O[C@]1(C(=O)SCF)[C@H](C)C[C@H]2[C@@H]3C[C@H](F)C4=CC(=O)C=C[C@]4(C)[C@@]3(F)[C@@H](O)C[C@@]21C [fluticasone propionate] |  |  |  |  |  | below 0.8 | no significant difference from the Control group | effect of suppressing a disorder in corneal endothelial cells was confirmed | effectively suppressed | almost the same as those in the Control group | decreased
